Results on 19 compounds are retold here after ChEMBL document CHEMBL1137195, “SAR and pharmacokinetic studies on phenethylamide inhibitors of the hepatitis C virus NS3/NS4A serine protease” (Bioorg Med Chem Lett, 2004).

Series [1] has as its target Hepatitis C virus serine protease, NS3/NS4A (Hepatitis C virus, UniProt A3EZI9+D2K2A8). Description: (§1) Inhibitory activity against Hepatitis C virus Non structural protein 3 serine protease/Non structural protein 4A serine protease. It counts as protein-complex assay, Hepacivirus hominis.
Series [2] can be described thus: Volume distribution in rats at 2 mg/kg. As to conditions: rat, in vivo, read-out: Vdss; call rule not given here. Also on record: dose 2 mg/kg. It is filed as ADME, organism-based.
The nature of series [3]: Area under curve in rats at 2 mg/kg. Also on record: dose 2 mg/kg. Particulars: rat, in vivo. It counts as ADME, organism-based.
A short description of series [4]: Half life in rats at 2 mg/kg. It counts as ADME, organism-based. Further details: dose 2 mg/kg. Particulars: rat, in vivo.
Series [5] is described as follows: plasma clearance in rats at 2 mg/kg. Further details: dose 2 mg/kg. It is filed as ADME, organism-based. Particulars: rat.
Series [6] concerns the target T1, Hepatitis C virus serine protease, NS3/NS4A (Hepatitis C virus, UniProt D2K2A8+A3EZI9). Briefly: Inhibitory activity against Hepatitis C virus Non structural protein 3 serine protease/Non structural protein 4A serine protease: Not active at 50 uM. It is filed as protein-complex assay, Hepacivirus hominis.
Series [7] can be described thus: Half life in rats. It counts as ADME. As to conditions: rat, in vivo.
Series [8] is described as follows: plasma clearance in rats. It counts as ADME, organism-based. As to conditions: rat.
Series [9] can be described thus: Area under curve in rats. It is filed as ADME. As to conditions: rat, in vivo.
Series [10] can be described thus: Volume distribution in rats. It counts as ADME, organism-based. Particulars: rat, in vivo; read-out: Vdss.
The target of series [11] is T1, Hepatitis C virus serine protease, NS3/NS4A. Described as §1. It is filed as protein-complex assay, Hepacivirus hominis.

T1 sequence (D2K2A8 whole entry): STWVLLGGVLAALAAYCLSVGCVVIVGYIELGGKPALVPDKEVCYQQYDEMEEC
T1 sequence (A3EZI9 whole entry): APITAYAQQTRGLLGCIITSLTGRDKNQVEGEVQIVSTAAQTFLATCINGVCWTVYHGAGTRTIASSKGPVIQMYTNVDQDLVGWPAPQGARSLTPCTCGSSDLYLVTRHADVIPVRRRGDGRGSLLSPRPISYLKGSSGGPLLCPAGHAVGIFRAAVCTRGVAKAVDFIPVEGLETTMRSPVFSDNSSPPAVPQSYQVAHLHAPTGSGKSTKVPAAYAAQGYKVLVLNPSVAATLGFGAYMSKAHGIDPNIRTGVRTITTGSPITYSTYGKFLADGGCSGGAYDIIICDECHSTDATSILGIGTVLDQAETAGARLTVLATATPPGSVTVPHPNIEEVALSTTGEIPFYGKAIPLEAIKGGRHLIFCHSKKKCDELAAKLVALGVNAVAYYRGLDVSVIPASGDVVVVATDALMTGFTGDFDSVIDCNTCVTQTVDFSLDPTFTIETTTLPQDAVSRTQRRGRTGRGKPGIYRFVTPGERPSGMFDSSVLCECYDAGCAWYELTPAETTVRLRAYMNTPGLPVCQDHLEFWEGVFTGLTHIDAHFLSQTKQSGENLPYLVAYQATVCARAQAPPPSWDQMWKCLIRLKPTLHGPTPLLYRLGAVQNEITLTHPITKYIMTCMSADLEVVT
Chain of Hepatitis C virus serine protease, NS3/NS4A (Hepatitis C virus, UniProt A3EZI9+D2K2A8) (D2K2A8 whole entry): as the sequence (D2K2A8 whole entry) above
Chain of Hepatitis C virus serine protease, NS3/NS4A (Hepatitis C virus, UniProt A3EZI9+D2K2A8) (A3EZI9 whole entry): as the sequence (A3EZI9 whole entry) above

`CC(C)COC(=O)N[C@H](C(=O)N1C[C@H](C2CCCCC2)C[C@H]1C(=O)N[C@@H](CC(F)F)C(=O)NCCc1cccc(NC(C(=O)O)c2ccccc2)c1)C(C)C` (some centres undefined): affinity in series [1] was put at a Ki of 650 nM.

Consider `CC(C)COC(=O)N[C@H](C(=O)N1C[C@H](c2ccccc2)C[C@H]1C(=O)N[C@@H](CC(F)F)C(=O)NCCc1cccc(/C=C/C(=O)O)c1)C(C)C`, for which the Ki – broadly, the dissociation constant of the complex between target and ligand, obtained from inhibition or displacement – in series [1] was found to be 1300 nM.

The compound `COc1ccc2c(O[C@@H]3C[C@@H](C(=O)N[C@@H](CC(F)F)C(=O)NCCc4c(F)cc(C(=O)O)cc4F)N(C(=O)C(NC(=O)OCC(C)C)C(C)(C)C)C3)cc(-c3ccccc3)nc2c1` (some centres undefined) had a Ki in series [1] of 30 nM.

For the compound `CC(C)COC(=O)N[C@H](C(=O)N1C[C@H](C2CCCCC2)C[C@H]1C(=O)N[C@@H](CC(F)F)C(=O)NCCc1c(F)cc(C(=O)NS(C)(=O)=O)cc1F)C(C)C`, the Vd in series [2] amounted to 0.8 L/kg. Further, the AUC (as a rule, the area under the concentration-time curve, a measure of exposure) in series [3] amounted to 0.9 µM·h. Moreover, the half-life (as a rule, how long it takes for the measured level to halve) in [4] was found to be 19 min. Also, the clearance – broadly, the rate of elimination divided by the concentration – in series [5] was determined as 46 mL/min/kg. Also, the affinity in [1], expressed as Ki, was 450 nM.

Regarding `CC(C)COC(=O)N[C@H](C(=O)N1C[C@H](c2ccccc2)C[C@H]1C(=O)N[C@@H](CC(F)F)C(=O)NCCc1cccc(OC(C(=O)O)c2ccccc2)c1)C(C)C` (some centres undefined), the Ki in series [1] came to 1000 nM.

`CCC(Nc1cccc(CCNC(=O)[C@H](CC(F)F)NC(=O)[C@@H]2C[C@@H](C3CCCCC3)CN2C(=O)[C@@H](NC(=O)OCC(C)C)C(C)C)c1)C(=O)O` (some centres undefined) returned a Ki in series [1] of 500 nM.

On to `CC(C)COC(=O)N[C@H](C(=O)N1C[C@H](C2CCCCC2)C[C@H]1C(=O)N[C@@H](CC(F)F)C(=O)NCCc1c(F)ccc(OCC(=O)O)c1F)C(C)C`, for which, in series [1], affinity was put at a Ki of 190 nM.

Compound `CC(C)COC(=O)N[C@H](C(=O)N1C[C@H](c2ccccc2)C[C@H]1C(=O)N[C@@H](CC(F)F)C(=O)NCCc1cccc(/C=C/C(=O)O)c1F)C(C)C` showed a Ki in series [1] of 400 nM.

For the compound `COC(=O)c1cc(F)c(CCNC(=O)[C@H](CC(F)F)NC(=O)[C@@H]2C[C@@H](C3CCCCC3)CN2C(=O)[C@@H](NC(=O)OCC(C)C)C(C)C)c(F)c1`, the Ki entry in [6] is on record as “Not Active”.

Turning to `CC(C)COC(=O)N[C@H](C(=O)N1C[C@H](C2CCCCC2)C[C@H]1C(=O)N[C@@H](CC(F)F)C(=O)NCCc1c(F)ccc(OC(C)C(=O)O)c1F)C(C)C` (some centres undefined), in series [1], affinity was put at a Ki of 120 nM.

In turn, `CC(C)COC(=O)N[C@H](C(=O)N[C@@H](CC(C)C)C(=O)N[C@@H](CC(F)F)C(=O)NCCc1c(F)cc(C(=O)O)cc1F)C(C)C` displayed a Ki in series [1] of 400 nM.

The compound `COc1ccc2c(O[C@@H]3C[C@@H](C(=O)N[C@@H](CC(F)F)C(=O)NCCc4c(F)cc(C(=O)O)cc4F)N(C(=O)[C@@H](NC(=O)OCC(C)C)C(C)C)C3)cc(-c3csc(NC(C)C)n3)nc2c1` came in with a Ki in series [1] of 20 nM.

`CC(C)COC(=O)N[C@H](C(=O)N1C[C@H](C2CCCCC2)C[C@H]1C(=O)N[C@@H](CC(F)F)C(=O)NCCc1c(F)cc(-c2nnn[nH]2)cc1F)C(C)C`: in series [7], the half-life was determined as 74 min. This compound also showed a clearance in series [8] of 9 mL/min/kg. For the same compound, the exposure (AUC) in series [9] came to 12.4 µM·h. Moreover, in [10], the Vd came out at 0.15 L/kg. Also, the affinity in series [1] corresponds to a Ki of 100 nM.

Regarding `CC(C)COC(=O)N[C@H](C(=O)N1C[C@H](c2ccccc2)C[C@H]1C(=O)N[C@@H](CC(F)F)C(=O)NCCc1cc(/C=C/C(=O)O)ccc1F)C(C)C`, the inhibition constant Ki in series [1] was 350 nM.

Take `CC(C)COC(=O)N[C@H](C(=O)N1CC(c2ccccc2)C[C@@H]1C(=O)N[C@@H](CC(F)F)C(=O)NCCc1c(F)cc(C(=O)O)cc1F)C(C)C` (some centres undefined): in [7], the half-life was found to be 72 min. In addition, the clearance in series [8] stood at 36 mL/min/kg. This compound displayed an AUC in series [9] of 1.3 µM·h. The Vd in [10] worked out at 2.4 L/kg. Further, the Ki in series [11] amounted to 450 nM.

In turn, `CC(C)COC(=O)N[C@H](C(=O)N1CC(C2CCCCC2)C[C@@H]1C(=O)N[C@@H](CC(F)F)C(=O)NCCc1c(F)cc(C(=O)O)cc1F)C(C)C` (some centres undefined) returned a half-life in series [7] of 15 min. The compound further gave a clearance in series [8] of 44 mL/min/kg. For the same compound, the area under the curve (AUC) in series [9] stood at 2.7 µM·h. Besides, the Vd in [10] was 0.45 L/kg. In [11], this compound yielded an inhibition constant Ki of 350 nM.

For `CC(C)COC(=O)N[C@H](C(=O)N[C@@H](CC(C)C)C(=O)N[C@@H](CC(F)F)C(=O)NCCc1ccc(C(=O)O)cc1Cl)C(C)C`, the Ki in [1] is 1200 nM.

Take `CC(C)COC(=O)N[C@H](C(=O)N1CC(OCc2ccccc2)C[C@@H]1C(=O)N[C@@H](CC(F)F)C(=O)NCCc1c(F)cc(C(=O)O)cc1F)C(C)C` (stereo in doubt; cis): in series [11], the Ki came out at 4500 nM.

Compound `CC(C)COC(=O)N[C@H](C(=O)N1CC(OCc2ccccc2)C[C@@H]1C(=O)N[C@@H](CC(F)F)C(=O)NCCc1c(F)cc(C(=O)O)cc1F)C(C)C` (stereo in doubt; trans) gave a half-life in series [7] of 48 min. This compound yielded a clearance in [8] of 222 mL/min/kg. Besides, in series [9], the AUC was determined as 0.4 µM·h. Moreover, the Vd in series [10] came out at 4.5 L/kg. The compound further had a Ki in series [11] of 550 nM.
